Test results from publication PMC4522657, “Identification of a DYRK1A Inhibitor that Induces Degradation of the Target Kinase using Co-chaperone CDC37 fused with Luciferase nanoKAZ” (Scientific Reports, 2015).

Legend:
Assay in all cases: Kinase panel, CaNDY 1 µM
Assay type in all cases: biochemical
Conditions in all cases: CaNDY 1 µM relative to DMSO
[1] = molecular target: T1, COT_Cascade (Homo sapiens, UniProt P41279)
T1 construct: purchased Carna Biosciences
Source text: (§1) Detailed information on the assay conditions is available on the website of Carna Biosciences (http://www.carnabio.com/english/index.html; Kobe, Japan). In brief, full-length human recombinant kinases were expressed using a baculovirus expression system as amino-terminal GST-fusion proteins, and purified by glutathione-Sepharose chromatography. The GenBank accession numbers of DYRK1A, DYRK1B, DYRK2, and DYRK3 were NP_001387.2, NP_004705.1, NP_003574.1, and NP_003573.2. Kinase activities were evaluated by Off-chip Mobility Shift Assay after reaction of 1 μM of the substrate DYRKtide-F with ATP (25 μM for DYRK1A, 50 μM for DYRK1B, 10 μM for DYRK2, and 5 μM for DYRK3). For each compound, a DMSO solution was diluted in assay buffer to yield a final concentration of 1% DMSO. After incubation for one hour at room temperature, substrate phosphorylation was analyzed by electrophoretic separation of the substrate and products using a Caliper LC3000 platform (Caliper Life Sciences, Mountain View, CA, USA). The phosphorylated product (P)/(P + substrate) ratio was calculated at each concentration of each small molecule and the percent inhibition was expressed relative to a control assay in the absence of the small molecule. […] The IC50 of each compound was calculated by interpolation on a log-concentration-response curve fitted with a four-parameter logistic equation.
(§2) All kinase assays were carried out at Carna Biosciences. The inhibitory map was made with Kinome Render[36].

[2] = molecular target: T2, ALK (Homo sapiens, UniProt Q9UM73)
T2 construct: purchased Carna Biosciences
Source text: as §1, §2

[3] = molecular target: T3, ABL(T315I) (Homo sapiens, UniProt P00519, T315I)
T3 construct: purchased Carna Biosciences
Source text: as §1, §2

[4] = molecular target: T4, FGFR1 (Homo sapiens, UniProt P11362)
T4 construct: purchased Carna Biosciences
Source text: as §1, §2

[5] = molecular target: T5, EPHA1 (Homo sapiens, UniProt P21709)
T5 construct: purchased Carna Biosciences
Source text: as §1, §2

[6] = molecular target: T6, KIT(V654A) (Homo sapiens, UniProt P10721, V654A)
T6 construct: purchased Carna Biosciences
Source text: as §1, §2

[7] = molecular target: T7, CGK2 (Homo sapiens, UniProt Q13237)
T7 construct: purchased Carna Biosciences
Source text: as §1, §2

[8] = molecular target: T8, JNK3 (Homo sapiens, UniProt P53779)
T8 construct: purchased Carna Biosciences
Source text: as §1, §2

[9] = molecular target: T9, EPHA8 (Homo sapiens, UniProt P29322)
T9 construct: purchased Carna Biosciences
Source text: as §1, §2

[10] = molecular target: T10, SGK2 (Homo sapiens, UniProt Q9HBY8)
T10 construct: purchased Carna Biosciences
Source text: as §1, §2

[11] = molecular target: T11, KIT(D816V) (Homo sapiens, UniProt P10721, D816V)
T11 construct: purchased Carna Biosciences
Source text: as §1, §2

[12] = molecular target: T12, MST2 (Homo sapiens, UniProt Q13188)
T12 construct: purchased Carna Biosciences
Source text: as §1, §2

[13] = molecular target: T13, MARK2 (Homo sapiens, UniProt Q7KZI7)
T13 construct: purchased Carna Biosciences
Source text: as §1, §2

[14] = molecular target: T14, JAK3 (Homo sapiens, UniProt P52333)
T14 construct: purchased Carna Biosciences
Source text: as §1, §2

[15] = molecular target: T15, RET(G691S) (Homo sapiens, UniProt P07949, G691S)
T15 construct: purchased Carna Biosciences
Source text: as §1, §2

[16] = molecular target: T16, AurC (Homo sapiens, UniProt Q9UQB9)
T16 construct: purchased Carna Biosciences
Source text: as §1, §2

[17] = molecular target: T17, EML4-ALK (Homo sapiens, UniProt Q9UM73)
T17 construct: purchased Carna Biosciences
Source text: as §1, §2

[18] = molecular target: T18, CK1ε (Homo sapiens, UniProt P49674)
T18 construct: purchased Carna Biosciences
Source text: as §1, §2

[19] = molecular target: T19, FGFR4(V550E) (Homo sapiens, UniProt P22455, V550E)
T19 construct: purchased Carna Biosciences
Source text: as §1, §2

[20] = molecular target: T20, DCAMKL2 (Homo sapiens, UniProt Q8N568)
T20 construct: purchased Carna Biosciences
Source text: as §1, §2

[21] = molecular target: T21, TBK1 (Homo sapiens, UniProt Q9UHD2)
T21 construct: purchased Carna Biosciences
Source text: as §1, §2

[22] = molecular target: T22, NEK4 (Homo sapiens, UniProt P51957)
T22 construct: purchased Carna Biosciences
Source text: as §1, §2

[23] = molecular target: T23, ALK(L1196M) (Homo sapiens, UniProt Q9UM73, L1196M)
T23 construct: purchased Carna Biosciences
Source text: as §1, §2

[24] = molecular target: T24, MER (Homo sapiens, UniProt Q12866)
T24 construct: purchased Carna Biosciences
Source text: as §1, §2

[25] = molecular target: T25, RON (Homo sapiens, UniProt Q04912)
T25 construct: purchased Carna Biosciences
Source text: as §1, §2

[26] = molecular target: T26, ABL (Homo sapiens, UniProt P00519)
T26 construct: purchased Carna Biosciences
Source text: as §1, §2

[27] = molecular target: T27, JAK2 (Homo sapiens, UniProt O60674)
T27 construct: purchased Carna Biosciences
Source text: as §1, §2

[28] = molecular target: T28, CDK3/CycE1 (Homo sapiens, UniProt Q00526)
T28 construct: purchased Carna Biosciences
Source text: as §1, §2

[29] = molecular target: T29, BRAF_Cascade (Homo sapiens, UniProt P15056)
T29 construct: purchased Carna Biosciences
Source text: as §1, §2

[30] = molecular target: T30, CK1γ1 (Homo sapiens, UniProt Q9HCP0)
T30 construct: purchased Carna Biosciences
Source text: as §1, §2

[31] = molecular target: T31, HCK (Homo sapiens, UniProt P08631)
T31 construct: purchased Carna Biosciences
Source text: as §1, §2

[32] = molecular target: T32, MST4 (Homo sapiens, UniProt Q9P289)
T32 construct: purchased Carna Biosciences
Source text: as §1, §2

[33] = molecular target: T33, KIT(T670I) (Homo sapiens, UniProt P10721, T670I)
T33 construct: purchased Carna Biosciences
Source text: as §1, §2

[34] = molecular target: T34, EPHA4 (Homo sapiens, UniProt P54764)
T34 construct: purchased Carna Biosciences
Source text: as §1, §2

[35] = molecular target: T35, ACK (Homo sapiens, UniProt Q07912)
T35 construct: purchased Carna Biosciences
Source text: as §1, §2

T18 sequence (P49674 whole entry): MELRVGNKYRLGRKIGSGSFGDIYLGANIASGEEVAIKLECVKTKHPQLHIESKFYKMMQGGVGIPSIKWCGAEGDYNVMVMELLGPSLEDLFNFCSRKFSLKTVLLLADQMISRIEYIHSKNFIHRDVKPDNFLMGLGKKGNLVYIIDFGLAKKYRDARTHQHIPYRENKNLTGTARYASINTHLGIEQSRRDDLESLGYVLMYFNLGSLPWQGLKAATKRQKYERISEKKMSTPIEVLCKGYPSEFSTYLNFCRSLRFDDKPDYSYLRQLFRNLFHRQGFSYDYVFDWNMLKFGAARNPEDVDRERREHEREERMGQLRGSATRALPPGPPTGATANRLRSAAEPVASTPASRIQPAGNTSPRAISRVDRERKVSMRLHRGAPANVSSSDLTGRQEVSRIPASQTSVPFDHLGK
T16 sequence (Q9UQB9 whole entry): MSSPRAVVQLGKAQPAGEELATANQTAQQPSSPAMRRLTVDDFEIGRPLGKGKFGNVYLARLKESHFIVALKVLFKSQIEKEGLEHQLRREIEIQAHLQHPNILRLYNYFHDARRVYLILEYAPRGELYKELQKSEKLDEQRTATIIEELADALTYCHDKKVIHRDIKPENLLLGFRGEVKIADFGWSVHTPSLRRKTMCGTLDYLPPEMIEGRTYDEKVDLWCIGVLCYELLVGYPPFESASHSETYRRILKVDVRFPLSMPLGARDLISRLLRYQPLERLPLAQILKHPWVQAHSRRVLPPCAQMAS
T29 sequence (P15056 whole entry): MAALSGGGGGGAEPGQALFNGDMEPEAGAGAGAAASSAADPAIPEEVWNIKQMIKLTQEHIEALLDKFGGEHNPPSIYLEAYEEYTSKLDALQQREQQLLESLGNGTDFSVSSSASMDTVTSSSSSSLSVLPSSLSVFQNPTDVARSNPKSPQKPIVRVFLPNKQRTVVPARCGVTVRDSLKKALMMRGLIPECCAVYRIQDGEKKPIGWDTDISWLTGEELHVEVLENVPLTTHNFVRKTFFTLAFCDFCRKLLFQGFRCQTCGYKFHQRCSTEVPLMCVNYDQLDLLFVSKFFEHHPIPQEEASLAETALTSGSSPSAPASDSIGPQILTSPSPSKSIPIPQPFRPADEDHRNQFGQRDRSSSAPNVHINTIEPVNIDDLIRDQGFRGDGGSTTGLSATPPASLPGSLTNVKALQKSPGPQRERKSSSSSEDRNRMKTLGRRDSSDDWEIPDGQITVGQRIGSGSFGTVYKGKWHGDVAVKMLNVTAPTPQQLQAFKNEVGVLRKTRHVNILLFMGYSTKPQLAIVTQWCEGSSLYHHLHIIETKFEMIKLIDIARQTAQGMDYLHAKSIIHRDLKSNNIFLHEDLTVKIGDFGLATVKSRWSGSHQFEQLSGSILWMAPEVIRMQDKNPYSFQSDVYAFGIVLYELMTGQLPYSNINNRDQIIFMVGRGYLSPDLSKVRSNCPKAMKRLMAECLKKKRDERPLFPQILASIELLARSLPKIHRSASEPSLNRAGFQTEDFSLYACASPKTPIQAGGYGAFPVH
T30 sequence (Q9HCP0 whole entry): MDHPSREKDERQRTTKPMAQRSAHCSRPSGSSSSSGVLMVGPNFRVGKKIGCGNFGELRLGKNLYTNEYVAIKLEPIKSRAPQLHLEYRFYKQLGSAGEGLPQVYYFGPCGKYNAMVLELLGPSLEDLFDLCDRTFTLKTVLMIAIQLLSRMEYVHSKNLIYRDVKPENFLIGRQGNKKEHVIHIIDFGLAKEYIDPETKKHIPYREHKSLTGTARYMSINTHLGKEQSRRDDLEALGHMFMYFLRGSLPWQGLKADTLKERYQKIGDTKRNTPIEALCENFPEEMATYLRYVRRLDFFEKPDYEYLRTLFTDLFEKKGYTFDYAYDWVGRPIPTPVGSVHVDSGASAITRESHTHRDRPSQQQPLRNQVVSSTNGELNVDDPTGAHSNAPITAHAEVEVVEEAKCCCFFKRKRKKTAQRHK
T35 sequence (Q07912 whole entry): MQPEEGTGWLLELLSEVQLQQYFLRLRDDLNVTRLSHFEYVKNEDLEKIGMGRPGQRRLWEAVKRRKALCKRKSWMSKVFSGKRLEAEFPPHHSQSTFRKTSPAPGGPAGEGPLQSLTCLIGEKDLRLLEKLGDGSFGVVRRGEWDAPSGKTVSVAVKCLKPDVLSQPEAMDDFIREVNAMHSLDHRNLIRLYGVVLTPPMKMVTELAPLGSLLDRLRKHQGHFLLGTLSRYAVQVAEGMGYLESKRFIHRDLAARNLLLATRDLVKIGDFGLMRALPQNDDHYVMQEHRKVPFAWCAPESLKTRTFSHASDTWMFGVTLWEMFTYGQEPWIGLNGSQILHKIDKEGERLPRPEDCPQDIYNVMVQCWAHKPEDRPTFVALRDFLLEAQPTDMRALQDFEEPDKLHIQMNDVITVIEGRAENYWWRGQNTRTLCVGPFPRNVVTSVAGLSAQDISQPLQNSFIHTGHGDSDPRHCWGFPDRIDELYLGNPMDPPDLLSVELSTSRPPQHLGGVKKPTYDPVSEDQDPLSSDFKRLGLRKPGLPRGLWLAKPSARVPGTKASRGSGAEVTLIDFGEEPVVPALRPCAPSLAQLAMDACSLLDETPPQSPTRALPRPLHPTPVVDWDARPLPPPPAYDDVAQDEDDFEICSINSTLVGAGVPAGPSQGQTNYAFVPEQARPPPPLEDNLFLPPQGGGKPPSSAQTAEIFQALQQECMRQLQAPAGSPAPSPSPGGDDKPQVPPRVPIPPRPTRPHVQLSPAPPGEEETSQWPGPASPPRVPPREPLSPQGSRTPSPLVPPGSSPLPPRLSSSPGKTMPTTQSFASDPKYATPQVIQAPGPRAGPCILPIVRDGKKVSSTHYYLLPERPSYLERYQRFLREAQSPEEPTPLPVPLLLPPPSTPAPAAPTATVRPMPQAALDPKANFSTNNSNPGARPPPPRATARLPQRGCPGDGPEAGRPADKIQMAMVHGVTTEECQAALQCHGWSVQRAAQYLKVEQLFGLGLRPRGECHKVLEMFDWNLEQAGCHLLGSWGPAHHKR
T13 sequence (Q7KZI7 whole entry): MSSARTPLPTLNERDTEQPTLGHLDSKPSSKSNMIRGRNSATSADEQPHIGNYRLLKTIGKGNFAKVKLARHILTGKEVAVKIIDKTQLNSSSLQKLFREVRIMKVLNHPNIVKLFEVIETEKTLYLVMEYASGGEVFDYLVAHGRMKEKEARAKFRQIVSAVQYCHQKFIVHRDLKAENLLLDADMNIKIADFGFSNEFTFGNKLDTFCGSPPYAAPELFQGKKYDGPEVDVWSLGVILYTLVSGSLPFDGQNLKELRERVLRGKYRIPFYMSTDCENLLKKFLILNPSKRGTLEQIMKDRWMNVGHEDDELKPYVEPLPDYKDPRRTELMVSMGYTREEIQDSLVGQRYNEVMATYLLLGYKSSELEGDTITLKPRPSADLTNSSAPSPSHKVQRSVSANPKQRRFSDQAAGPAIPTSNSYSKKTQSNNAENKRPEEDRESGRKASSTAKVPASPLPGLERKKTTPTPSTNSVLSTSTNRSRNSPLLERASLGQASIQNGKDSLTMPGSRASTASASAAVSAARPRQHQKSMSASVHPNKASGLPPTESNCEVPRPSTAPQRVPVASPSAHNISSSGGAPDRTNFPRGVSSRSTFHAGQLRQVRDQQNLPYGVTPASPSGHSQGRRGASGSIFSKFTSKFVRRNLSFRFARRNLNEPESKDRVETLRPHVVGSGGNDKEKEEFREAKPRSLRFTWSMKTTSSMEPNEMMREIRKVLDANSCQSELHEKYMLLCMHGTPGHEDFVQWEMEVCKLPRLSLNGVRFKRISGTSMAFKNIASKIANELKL
T10 sequence (Q9HBY8 whole entry): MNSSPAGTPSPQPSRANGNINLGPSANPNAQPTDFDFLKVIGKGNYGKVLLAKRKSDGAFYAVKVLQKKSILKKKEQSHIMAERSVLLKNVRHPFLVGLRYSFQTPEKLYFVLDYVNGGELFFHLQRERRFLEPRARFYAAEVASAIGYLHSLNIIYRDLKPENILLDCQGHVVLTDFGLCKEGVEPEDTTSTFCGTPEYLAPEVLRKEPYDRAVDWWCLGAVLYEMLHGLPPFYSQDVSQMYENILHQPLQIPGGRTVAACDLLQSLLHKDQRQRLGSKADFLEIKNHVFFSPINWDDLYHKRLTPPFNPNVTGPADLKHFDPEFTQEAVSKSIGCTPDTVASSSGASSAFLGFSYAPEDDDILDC
T28 sequence (Q00526 whole entry): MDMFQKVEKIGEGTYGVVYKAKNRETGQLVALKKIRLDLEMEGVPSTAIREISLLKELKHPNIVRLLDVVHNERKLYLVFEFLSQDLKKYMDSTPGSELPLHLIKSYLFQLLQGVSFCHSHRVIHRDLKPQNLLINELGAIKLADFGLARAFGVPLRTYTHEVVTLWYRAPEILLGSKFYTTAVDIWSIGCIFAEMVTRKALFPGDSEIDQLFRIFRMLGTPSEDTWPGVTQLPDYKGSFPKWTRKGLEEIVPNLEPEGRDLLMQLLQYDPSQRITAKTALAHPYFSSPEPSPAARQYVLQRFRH
T28 sequence (P24864 whole entry, further chain): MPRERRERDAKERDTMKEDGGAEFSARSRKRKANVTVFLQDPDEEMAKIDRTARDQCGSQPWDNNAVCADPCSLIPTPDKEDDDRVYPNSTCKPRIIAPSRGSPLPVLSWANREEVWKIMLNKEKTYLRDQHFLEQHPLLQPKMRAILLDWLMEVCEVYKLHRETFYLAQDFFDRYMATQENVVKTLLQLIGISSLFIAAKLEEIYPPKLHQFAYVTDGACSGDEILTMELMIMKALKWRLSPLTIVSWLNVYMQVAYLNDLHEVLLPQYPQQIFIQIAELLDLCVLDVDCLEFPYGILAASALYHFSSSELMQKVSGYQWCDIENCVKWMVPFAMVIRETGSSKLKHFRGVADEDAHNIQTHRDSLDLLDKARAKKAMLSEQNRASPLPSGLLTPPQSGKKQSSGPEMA

[H]/N=C1/NC(=O)C(=Cc2ccc3c(c2)CCO3)S1 [CaNDY, (Z)-5-[(2,3-dihydrobenzofuran-5-yl)methylene]-2-iminothiazolidin-4-one]
remaining activity at 1 µM [1]: 72.9% | remaining activity at 1 µM [2]: 98.7% | remaining activity at 1 µM [3]: 97% | remaining activity at 1 µM [4]: 105% | remaining activity at 1 µM [5]: 95.5% | remaining activity at 1 µM [6]: 98.5% | remaining activity at 1 µM [7]: 71.1% | %Activity [8]: 100.8% | remaining activity at 1 µM [9]: 101% | remaining activity at 1 µM [10]: 88.6% | remaining activity at 1 µM [11]: 92.2% | remaining activity at 1 µM [12]: 103% | remaining activity at 1 µM [13]: 97.5% | remaining activity at 1 µM [14]: 94.2% | remaining activity at 1 µM [15]: 102% | remaining activity at 1 µM [16]: 97% | remaining activity at 1 µM [17]: 99.2% | remaining activity at 1 µM [18]: 89.4% | remaining activity at 1 µM [19]: 102% | remaining activity at 1 µM [20]: 102% | remaining activity at 1 µM [21]: 100% | remaining activity at 1 µM [22]: 86.2% | remaining activity at 1 µM [23]: 97.8% | remaining activity at 1 µM [24]: 102% | remaining activity at 1 µM [25]: 98.6% | remaining activity at 1 µM [26]: 103% | %Activity [27]: 100.3% | %Activity [28]: 94.7% | remaining activity at 1 µM [29]: 108% | %Activity [30]: 83.4% | remaining activity at 1 µM [31]: 95.5% | remaining activity at 1 µM [32]: 103% | remaining activity at 1 µM [33]: 96.6% | remaining activity at 1 µM [34]: 102% | remaining activity at 1 µM [35]: 108%
